In this series the test system is porcine jejunum tissue. The experiment in a line: GI-TRIS intestinal transport experiments. It counts as in vitro ADME, pig.

On to carbetocin acetate, for which the “increase in intestinal transport when formulated with polyethyleneimine” value is “limited increase”.

Values taken from PMC8357188 (Nature biomedical engineering, 2020).
